How the values were obtained:
Format in all cases: cell-based
[1] = tested on: human acute T cell leukemia cell Jurkat; assay: MTT inhibition ratio on tumor cells Jurkat; details: for Inhibition ratio (%): 72 h, MTT; for activity of inhibiting tumors compared with positive control: summary of Table 2
Description: (§1) The inhibition ratio of the selected compounds on tumor cells A431 and Jurkat is measured via the MTT analytical method.
(§2) 1) Cell strains: human skin cancer cell strain A431 and human acute T cell leukemia cell Jurkat. The ells grow in an RPMI-1640 culture medium and high glucose DMEM (Gibco BRL, Rockville, Md., USA)+10% fetal calf serum (containing 2 mM L-glutamine, penicillin and streptomycin), and putting them into an incubator at 37° C. (5% CO2-95% air) for growing, carrying out digestive passage with 0.25% trypsin, and changing the solution every 1 to 2 days.
(§3) 2) The dissolution and dilution of compounds: according to the molecular weight and mass of the compounds, preparing into a 10 mM of mother solution respectively using DMSO (SIGMA), and diluting to the required concentration of 100 μM (DMSO content≤3%o) with the RPMI-1640 culture medium. Storing the diluted drugs at temperature of −20° C.
(§4) 1) Cell inoculation: Taking cells in the logarithmic phase, after digestion with pancreatin, the cells disperse into single cells, counting, adjusting cell suspension to […], inoculating in the 96-well plates with 180 μL in each well, and making the amount of the inoculated cells is 4.0×10^3 cells/well. After cell attachment, adding the fresh culture media containing compounds with different concentrations respectively, making the concentrations of the compounds reach 12.5 nM and 6.25 nM, setting 3 duplicate wells for each concentration, operating in absence of light, and adjusting the content of DMSO in each concentration to be consistent.
(§5) 2) After drug incubation for 72 h, adding 20 μL of MTT (3-[4,5-dimethylthiazol-2-yl]-2,5-diphenyltetrazolium bromide, Sigma; 5 mg/mL) into each well, incubating in a incubator for 4 h, removing supernate, adding 150 μL of DMSO into each well for dissolving, and measuring absorbancy at 570 nm using the microplate reader. According to the formula: Inhibition ratio=[(A570 control well−A570 administration well)/A570 control well]×100%, to calculate the inhibition ratio of each concentration, and the result is shown in the table 2.

[2] = tested on: intracellular microtubulin of human epidermal carcinoma A431; assay: High content imaging analysis of microtubulin (immunofluorescent staining, Alexa 488); details: 12.5 nM, 24 h; for Alexa488 stained fluorescence intensity of microtubulin in the cells: versus blank and DMSO control, FIG. 3/4; for microtubulin distribution and cellular morphology / Alexa488 fluorescence intensity compared with the positive control Plinabulin: A431 cells; for microtubulin distribution and cellular morphology: FIG. 3; for Alexa488 fluorescence intensity compared with the positive control Plinabulin: FIG. 4
Description: Plinabulin (dehydro-phenylahistin) is used as positive control, and concentration is set as 12.5 nM. According to the data in earlier-stage, 3 kinds of samples are selected, i.e., compounds 1, 2 and 3. The concentrations of all samples are set as 12.5 nM. According to the experiment method for specific immunofluorescent staining (Alexa 488), the effect of the compounds 1, 2 and 3 on the expression of intracellular microtubulin of human epidermal carcinoma A431 is detected via the high content imaging analysis system. 1) Taking cells in the logarithmic phase, after digestion with pancreatin, the cells disperse into single cells counting, inoculating in the 96-well plates at 1.2×10^4 cells/well, putting at temperature of 37° C., culturing in a 5% CO2 incubator for 24 h until cell attachment. 2) After cell attachment, for experiment group, adding the fresh culture medium containing compounds with different concentrations respectively into each well, making the concentrations of the compounds reach 12.5 nM, and setting 3 duplicate wells for each concentration. In the control group, adding a solvent DMSO with equimultiple diluting, selecting Plinabulin (dehydro-phenylahistin) as a positive drug, setting 3 duplicate wells in each group, and culturing in an incubator at temperature of 37° C. under 5% CO2 saturated humidity for 24 h. 3) Absorbing the culture medium after 24 h, and washing with PBS for 3 times; fixing with 4% paraformaldehyde for 30 min, absorbing paraformaldehyde, and washing with PBS for 3 times; sealing with 0.3% Triton X-100 and 5% BSA for 30 min, absorbing, and washing with PBS for 3 times; adding Tubulin antibody (mouse antibody, diluting in a ratio of 1:200), and staying overnight at temperature of 4° C.; absorbing, and washing with PBS for 3 times; adding DyLight 488-goat anti mouse IgG (diluting in a ratio of 1:1000), and placing at room temperature for 90 min 4) Photographing analysis of high content imaging analysis system

[3] = tested on: human skin cancer cell strain A431; assay: MTT inhibition ratio on tumor cells A431; details: for Inhibition ratio (%): 72 h, MTT; for activity of inhibiting tumors compared with positive control: A431, summary of Table 2
Description: as §1, §2, §3, §4, §5

Structure (SMILES)	Inhibition ratio (%) ([1]; concentration 12.5 nM)	activity of inhibiting tumors compared with positive control [1]	Alexa488 stained fluorescence intensity of microtubulin in the cells [2]	microtubulin distribution and cellular morphology [2]	Alexa488 fluorescence intensity compared with the positive control Plinabulin [2]	Inhibition ratio (%) ([3]; A431, concentration 12.5 nM)	activity of inhibiting tumors compared with positive control [3]	Inhibition ratio (%) ([1]; concentration 6.25 nM)	Inhibition ratio (%) ([3]; A431, concentration 6.25 nM)
[2H]/C(c1nc[nH]c1C(C)(C)C)=c1/[nH]c(=O)/c(=C/c2c([2H])c([2H])c([2H])c([2H])c2[2H])[nH]c1=O [Compound 1, (3Z,6Z)-3-(phenyl-2,3,4,5,6-d5)-methylene-6-((5-(tert-butyl)-1H-imidazol-4-yl)methylene-d)piperazine-2,5-dione]	86.46%	close to that of the positive control Plinabulin	obviously enhanced	aggregation in microtubulin and a significant change in cellular morphology	higher than the positive control in the effect	95.04%	close to that of the positive control Plinabulin	–	–
[2H]/C(c1c([2H])c([2H])c([2H])c([2H])c1[2H])=c1/[nH]c(=O)/c(=C/c2nc[nH]c2C(C)(C)C)[nH]c1=O [Compound 6, (3Z,6Z)-3-(phenyl-2,3,4,5,6-d5)-methylene-d-6-((5-(tert-butyl)-1H-imidazol-4-yl)methylene)piperazine-2,5-dione]	73.40%	close to that of the positive control Plinabulin	–	–	–	79.28%	close to that of the positive control Plinabulin	7.70%	16.17%
[2H]/C(c1nc[nH]c1C(C)(C)C)=c1/[nH]c(=O)/c(=C/c2ccccc2)[nH]c1=O [Compound 3, (3Z,6Z)-3-(phenylmethylene)-6-((5-(tert-butyl)-1H-imidazol-4-yl)methylene-d)piperazine-2,5-dione]	86.09%	close to that of the positive control Plinabulin	obviously enhanced	aggregation in microtubulin and a significant change in cellular morphology	higher than the positive control in the effect	93.79%	close to that of the positive control Plinabulin	–	–
[2H]/C(c1nc[nH]c1C(C)(C)C)=c1/[nH]c(=O)/c(=C(\[2H])c2c([2H])c([2H])c([2H])c([2H])c2[2H])[nH]c1=O [Compound 7, (3Z,6Z)-3-(phenyl-2,3,4,5,6-d5)-methylene-d-6-((5-(tert-butyl)-1H-imidazol-4-yl)methylene-d)piperazine-2,5-dione]	64.49%	close to that of the positive control Plinabulin	–	–	–	87.73%	close to that of the positive control Plinabulin	–	–
[2H]/C(c1ccccc1)=c1/[nH]c(=O)/c(=C/c2nc[nH]c2C(C)(C)C)[nH]c1=O [Compound 4, (3Z,6Z)-3-(phenylmethylene-d)-6-((5-(tert-butyl)-1H-imidazol-4-yl)methylene)piperazine-2,5-dione]	82.33%	close to that of the positive control Plinabulin	–	–	–	91.85%	close to that of the positive control Plinabulin	16.04%	53.90%
[2H]c1c([2H])c([2H])c(/C=c2\[nH]c(=O)/c(=C/c3nc[nH]c3C(C)(C)C)[nH]c2=O)c([2H])c1[2H] [Compound 5, (3Z,6Z)-3-(phenyl-2,3,4,5,6-d5)-methylene-6-((5-(tert-butyl)-1H-imidazol-4-yl)methylene)piperazine-2,5-dione]	16.86%	close to that of the positive control Plinabulin	–	–	–	66.00%	close to that of the positive control Plinabulin	–	–
CC(C)(C)c1[nH]cnc1/C=c1\[nH]c(=O)/c(=C/c2ccccc2)[nH]c1=O [Plinabulin, reference compound]	79.69%	–	obviously enhanced	aggregation in microtubulin and a significant change in cellular morphology	–	91.81%	–	13.75%	63.25%
[2H]/C(c1ccccc1)=c1/[nH]c(=O)/c(=C(\[2H])c2nc[nH]c2C(C)(C)C)[nH]c1=O [Compound 2, (3Z,6Z)-3-(phenylmethylene-d)-6-((5-(tert-butyl)-1H-imidazol-4-yl)methylene-d)piperazine-2,5-dione]	79.65%	close to that of the positive control Plinabulin	obviously enhanced	aggregation in microtubulin and a significant change in cellular morphology	higher than the positive control in the effect	94.11%	close to that of the positive control Plinabulin	–	–

Source: patent publication US10434098B2, “Deuterated dehydrophenylahistin compounds and preparation method thereof and use thereof in preparation of anti-tumor drugs” (MARINE BIOMEDICAL RESEARCH INSTITUTE OF QINGDAO CO., LTD., priority 2015, dated 2019)
